From ChEMBL document CHEMBL1201862, “PubChem BioAssay data set” (2004)
Active and inactive are the calls of the source.

Columns and labels:
[1] = target: Melanin-concentrating hormone receptor 1 (Homo sapiens, UniProt Q99705); assay: Fluorescence-based counterscreen for antagonists of the G-protein coupled receptor 7 (GPR7): cell-based high throughput dose response assay to identify antagonists of the melanin-concentrating hormone receptor 1 (MCHR1).; type: functional
[2] = target: T1, Neuropeptides B/W receptor type 1 (Homo sapiens, UniProt P48145); assay: Fluorescence-based dose response cell-based high throughput screening assay to identify antagonists of the G-protein coupled receptor 7 (GPR7). [Related pubchem assays: 1952 (Screening assay (GPR7 antagonists).), 1880 (Summary AID.)]; type: functional
T1 sequence (P48145 whole entry): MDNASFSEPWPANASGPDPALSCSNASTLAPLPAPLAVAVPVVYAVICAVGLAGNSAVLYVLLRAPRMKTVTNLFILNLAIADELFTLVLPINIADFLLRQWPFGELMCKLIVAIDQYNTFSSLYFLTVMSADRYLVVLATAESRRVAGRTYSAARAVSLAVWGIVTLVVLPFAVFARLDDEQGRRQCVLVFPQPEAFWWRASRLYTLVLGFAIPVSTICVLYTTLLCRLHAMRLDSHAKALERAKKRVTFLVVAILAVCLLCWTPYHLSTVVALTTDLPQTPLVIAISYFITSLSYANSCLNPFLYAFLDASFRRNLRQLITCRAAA

[3] = Luminescence Cell-Based Dose Confirmation HTS to Identify Activators of 5'UTR Stem-Loop Driven Alpha-Synuclein mRNA Translation in H4 Neuroglioblastoma Cells. [Related pubchem assays: 1829 (Project Summary), 1814 (Primary HTS)]; type: functional
[4] = Luminescence Cell-Based Dose Confirmation to Identify Activators of 5'UTR Stem-Loop Driven Alpha-Synuclein mRNA Translation in H4 Neuroglioblastoma Cells. [Related pubchem assays: 1829 (Project Summary), 1814 (Primary HTS)]; type: functional
BJ [5] = assay: cells; type: functional, cell-based; details: Homo sapiens
H4 = assay: Luminescence Cell-Based Dose Response HTS to Identify Activators of 5'UTR Stem-Loop Driven Prion Protein mRNA Translation in H4 Neuroglioblastoma Cells. [Related pubchem assays: 1829 (Project Summary), 1814 (Primary HTS)]; type: functional; details: Homo sapiens
[6] = Luminescence Cell-Based Dose Response to Identify Activators of 5'UTR Stem-Loop Driven Prion Protein mRNA Translation in H4-C Neuroglioblastoma Cells. [Related pubchem assays: 1829 (Project Summary), 1814 (Primary HTS)]; type: functional
BJ [7] = assay: cytotoxicity toward BJ-TERT-LT-ST fibroblasts, dose response, cell-based, RAS-independent, luminescence (AID 1935); type: functional; details: Homo sapiens;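 further: BJ fibroblasts immortalized with TERT plus LT and ST oncogenes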
BJ [8] = assay: cytotoxicity toward BJ-TERT fibroblasts, dose response, cell-based, RAS-independent, luminescence (AID 1933); type: functional; details: Homo sapiens
[9] = cytotoxicity toward DRD oncogenic fibroblasts, dose response, cell-based, non-viral oncogenic, luminescence (AID 1934); type: functional; details: Homo sapiens
[10] = Luminescence Cell-Based Dose Response to Identify Activators of Luciferase Translation or Activity in H4-C Neuroglioblastoma Cells. [Related pubchem assays: 1829 (Project Summary), 1814 (Primary HTS)]; type: functional
[11] = Luminescence Cell-Based Dose Response HTS to Identify Activators of Luciferase Translation or Activity in H4 […] Cells. [Related pubchem assays: 1829 (Project Summary), 1814 (Primary HTS)]; type: functional
[12] = target: E3 ubiquitin-protein ligase Mdm2 (Homo sapiens, UniProt Q00987); assay: enhancers of MDM2-luciferase reporter signal, concentration-effect titration, project on inhibitors of MDM2 ubiquitin ligase, cellular assay, luminescent readout, 384-well plate format (AID 1394); type: functional;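 further: MDM2 E3 inhibitors raise luminescence so EC50 is for signal enhancement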
Cytochrome P450 1A2 = target: T2, Cytochrome P450 1A2 (Homo sapiens, UniProt P05177);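 further: PubChem cytochrome P450 panel assay, CYP1A2 panel member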
T2 sequence (P05177 whole entry): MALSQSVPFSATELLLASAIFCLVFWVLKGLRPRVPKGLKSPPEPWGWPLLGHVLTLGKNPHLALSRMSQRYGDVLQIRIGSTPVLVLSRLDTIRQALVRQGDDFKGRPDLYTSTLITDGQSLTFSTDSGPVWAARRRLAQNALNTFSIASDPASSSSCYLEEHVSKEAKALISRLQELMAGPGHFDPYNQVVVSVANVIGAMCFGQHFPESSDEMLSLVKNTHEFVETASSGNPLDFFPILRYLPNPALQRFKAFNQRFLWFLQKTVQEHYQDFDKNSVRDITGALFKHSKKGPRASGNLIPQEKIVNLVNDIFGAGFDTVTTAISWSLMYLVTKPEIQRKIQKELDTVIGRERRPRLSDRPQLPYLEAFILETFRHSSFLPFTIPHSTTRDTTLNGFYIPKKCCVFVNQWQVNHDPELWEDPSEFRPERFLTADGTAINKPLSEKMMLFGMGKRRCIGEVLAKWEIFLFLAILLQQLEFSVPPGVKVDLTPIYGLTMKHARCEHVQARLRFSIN

[13] = target: T3, Mannose-6-phosphate isomerase (Homo sapiens, UniProt P34949); assay: human PMI inhibitors, high substrate, primary screen, biochemical, fluorescence intensity, high mannose 6-phosphate (AID 1220)
T3 sequence (P34949 whole entry): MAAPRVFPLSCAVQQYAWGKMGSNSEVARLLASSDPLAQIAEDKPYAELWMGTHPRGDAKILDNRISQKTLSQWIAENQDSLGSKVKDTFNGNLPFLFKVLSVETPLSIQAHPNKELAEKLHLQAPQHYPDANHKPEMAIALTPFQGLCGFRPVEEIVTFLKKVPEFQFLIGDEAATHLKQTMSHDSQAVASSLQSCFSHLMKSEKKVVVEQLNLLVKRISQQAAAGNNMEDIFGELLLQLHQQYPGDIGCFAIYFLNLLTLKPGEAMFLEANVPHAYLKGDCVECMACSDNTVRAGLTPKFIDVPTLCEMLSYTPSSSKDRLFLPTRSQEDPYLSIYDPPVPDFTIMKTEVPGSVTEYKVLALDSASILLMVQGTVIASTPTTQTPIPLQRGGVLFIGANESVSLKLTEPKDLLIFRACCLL

Estrogen receptor beta [14] = target: T4, Estrogen receptor beta (Homo sapiens, UniProt Q92731); assay: ERβ–SRC-3 coactivator interaction inhibitors, confirmation, orthogonal assay, biochemical, ELISA, streptavidin-HRP readout (AID 1060)
Large T antigen = Large T antigen (Simian virus 40, UniProt P03070); type: functional, Betapolyomavirus macacae;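 further: Confirmatory-stage PubChem screen for compounds that inhibit SV40 T antigen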
[15] = target: T5, Sentrin-specific protease 8 (Homo sapiens, UniProt Q96LD8); type: functional
T5 sequence (Q96LD8 whole entry): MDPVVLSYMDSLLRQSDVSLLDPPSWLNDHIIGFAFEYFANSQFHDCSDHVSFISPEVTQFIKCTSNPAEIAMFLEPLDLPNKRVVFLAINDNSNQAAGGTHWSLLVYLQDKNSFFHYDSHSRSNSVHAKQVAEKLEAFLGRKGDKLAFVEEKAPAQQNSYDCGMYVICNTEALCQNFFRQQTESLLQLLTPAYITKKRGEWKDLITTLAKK

[16] = target: T5, Sentrin-specific protease 8; type: functional; remark: listed apart in the source
Estrogen receptor beta [17] = target: T4, Estrogen receptor beta
[18] = target: T6, Rac GTPase-activating protein 1 (Homo sapiens, UniProt Q9H0H5); assay: MgcRacGAP GTPase-activating activity inhibitors, confirmation, biochemical, ADP Hunter fluorescence, primary and confirmatory (AID 624330); type: functional
T6 sequence (Q9H0H5 whole entry): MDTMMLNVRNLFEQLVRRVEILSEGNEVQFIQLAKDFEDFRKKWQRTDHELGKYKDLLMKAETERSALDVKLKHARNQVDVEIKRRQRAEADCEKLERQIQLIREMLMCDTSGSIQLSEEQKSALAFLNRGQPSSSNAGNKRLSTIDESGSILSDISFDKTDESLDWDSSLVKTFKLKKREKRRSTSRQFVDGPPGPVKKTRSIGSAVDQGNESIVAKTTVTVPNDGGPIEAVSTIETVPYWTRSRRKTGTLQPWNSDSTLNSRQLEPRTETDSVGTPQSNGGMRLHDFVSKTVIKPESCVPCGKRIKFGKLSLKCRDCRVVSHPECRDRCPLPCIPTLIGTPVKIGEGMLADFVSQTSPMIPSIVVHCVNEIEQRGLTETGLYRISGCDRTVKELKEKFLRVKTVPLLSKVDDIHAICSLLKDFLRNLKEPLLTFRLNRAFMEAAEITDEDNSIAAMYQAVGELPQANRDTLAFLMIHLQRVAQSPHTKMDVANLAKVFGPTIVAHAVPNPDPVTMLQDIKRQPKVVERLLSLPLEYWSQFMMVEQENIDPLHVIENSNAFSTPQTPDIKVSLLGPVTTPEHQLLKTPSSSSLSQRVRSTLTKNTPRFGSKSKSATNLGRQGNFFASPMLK

T4 sequence (Q92731 whole entry): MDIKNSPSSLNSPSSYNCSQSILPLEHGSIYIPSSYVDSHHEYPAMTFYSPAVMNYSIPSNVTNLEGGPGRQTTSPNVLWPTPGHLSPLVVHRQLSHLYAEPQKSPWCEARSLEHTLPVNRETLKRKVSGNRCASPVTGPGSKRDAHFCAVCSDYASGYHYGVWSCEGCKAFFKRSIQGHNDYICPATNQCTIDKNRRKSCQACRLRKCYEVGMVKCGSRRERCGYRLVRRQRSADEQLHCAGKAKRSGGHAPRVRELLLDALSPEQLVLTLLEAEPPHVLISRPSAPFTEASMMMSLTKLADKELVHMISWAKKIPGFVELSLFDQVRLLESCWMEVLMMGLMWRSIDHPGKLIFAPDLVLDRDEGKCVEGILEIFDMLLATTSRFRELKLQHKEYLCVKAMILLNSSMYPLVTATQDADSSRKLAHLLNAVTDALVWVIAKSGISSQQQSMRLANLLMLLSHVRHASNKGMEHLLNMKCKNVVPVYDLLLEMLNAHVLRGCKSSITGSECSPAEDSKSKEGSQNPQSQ
E3 ubiquitin-protein ligase Mdm2, sequence (Q00987 whole entry): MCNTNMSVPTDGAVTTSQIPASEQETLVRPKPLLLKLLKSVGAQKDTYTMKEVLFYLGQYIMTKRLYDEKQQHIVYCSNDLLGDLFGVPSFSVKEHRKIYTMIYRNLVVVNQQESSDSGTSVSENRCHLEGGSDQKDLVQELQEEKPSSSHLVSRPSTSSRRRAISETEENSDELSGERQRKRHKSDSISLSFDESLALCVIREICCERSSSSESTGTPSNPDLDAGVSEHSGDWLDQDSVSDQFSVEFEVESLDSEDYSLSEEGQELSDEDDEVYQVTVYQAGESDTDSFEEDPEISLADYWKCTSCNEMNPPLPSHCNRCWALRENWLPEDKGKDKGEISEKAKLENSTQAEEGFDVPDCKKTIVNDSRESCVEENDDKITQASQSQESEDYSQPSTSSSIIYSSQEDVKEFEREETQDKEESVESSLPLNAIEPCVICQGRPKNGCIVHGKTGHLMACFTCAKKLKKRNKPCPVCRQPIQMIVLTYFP
Melanin-concentrating hormone receptor 1, sequence (Q99705 whole entry): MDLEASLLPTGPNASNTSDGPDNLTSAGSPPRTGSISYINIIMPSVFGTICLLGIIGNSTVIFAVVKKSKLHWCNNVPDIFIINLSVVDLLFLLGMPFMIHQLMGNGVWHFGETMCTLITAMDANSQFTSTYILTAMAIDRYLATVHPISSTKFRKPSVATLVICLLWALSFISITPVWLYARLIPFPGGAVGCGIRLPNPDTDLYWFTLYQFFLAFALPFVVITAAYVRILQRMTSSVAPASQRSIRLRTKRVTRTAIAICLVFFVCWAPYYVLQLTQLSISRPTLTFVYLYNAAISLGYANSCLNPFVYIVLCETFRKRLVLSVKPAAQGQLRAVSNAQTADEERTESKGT
Large T antigen, sequence (P03070 whole entry): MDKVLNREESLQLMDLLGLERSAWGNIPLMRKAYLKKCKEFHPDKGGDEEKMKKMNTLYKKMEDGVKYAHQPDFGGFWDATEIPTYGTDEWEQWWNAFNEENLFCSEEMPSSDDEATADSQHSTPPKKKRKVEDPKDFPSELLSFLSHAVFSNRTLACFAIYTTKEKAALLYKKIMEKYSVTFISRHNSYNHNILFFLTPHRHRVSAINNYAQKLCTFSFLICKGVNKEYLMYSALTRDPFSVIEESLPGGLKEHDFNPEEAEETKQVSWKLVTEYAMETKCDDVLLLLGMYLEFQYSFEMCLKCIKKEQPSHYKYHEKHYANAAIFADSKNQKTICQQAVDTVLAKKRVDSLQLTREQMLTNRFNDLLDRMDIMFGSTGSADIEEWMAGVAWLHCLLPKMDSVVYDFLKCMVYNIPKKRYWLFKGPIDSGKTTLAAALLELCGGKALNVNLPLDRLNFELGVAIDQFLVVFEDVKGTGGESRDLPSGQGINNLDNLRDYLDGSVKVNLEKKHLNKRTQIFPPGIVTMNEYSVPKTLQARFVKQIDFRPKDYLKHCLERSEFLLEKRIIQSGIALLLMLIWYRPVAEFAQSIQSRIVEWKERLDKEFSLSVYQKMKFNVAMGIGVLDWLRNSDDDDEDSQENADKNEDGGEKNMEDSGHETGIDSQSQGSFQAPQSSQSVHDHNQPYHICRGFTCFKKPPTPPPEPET

CCOc1ccc([N+](=O)[O-])cc1CNC1CCCCCCC1
IC50 [1]: 12.6 µM (not active) | IC50 [2]: 27.3 µM (not active)

N#CC1=C(SCC(=O)c2ccccc2)N=C2CCCC(O)=C2C1c1ccco1 (configuration not stated)
EC50 [3]: > 120 µM (not active) | EC50 [4]: 0.464 µM (active) | EC50 (BJ [5]): 42.1 µM (inconclusive) | EC50 (H4): > 120 µM (not active) | EC50 [6]: 1.22 µM (active) | EC50 (BJ [7]): 18.9 µM (active) | EC50 (BJ [8]): 2.85 µM (active) | EC50 [9]: 19.3 µM (inconclusive) | EC50 [10]: 0.395 µM (active) | EC50 [11]: < 0.1 µM (active)

C=CCN(c1cccc(C(F)(F)F)c1)S(=O)(=O)c1cccc(C(=O)OCC(=O)NCCC)c1
EC50 [12]: 277 µM (not active)

Brc1c(NC2=NCCN2)ccc2nccnc12 [BRIMONIDINE]
AC50 (Cytochrome P450 1A2): 39.8 µM (inconclusive) | IC50 [13]: > 50 µM (not active)

O=C(NC1CCCCC1)C(c1cccnc1)N(C(=O)c1ccc(Cl)nc1)C1CCCCC1 (configuration not stated)
EC50 [12]: 12.7 µM (not active)

O=C(Nc1ccc(O)cc1)C1CC=CCC1 (configuration not stated)
IC50 (Estrogen receptor beta [14]): 0.124 µM (not active) | IC50 (Large T antigen): 16.4 µM (active) | IC50 [15]: 19.1 µM (active) | IC50 [16]: 25.1 µM (active) | IC50 (Estrogen receptor beta [17]): 3.2 µM (active) | IC50 [18]: 40.7 µM (active)
